# Results as given in paper PMC4175002, “The Design and Synthesis of Potent and Selective Inhibitors of Trypanosoma brucei Glycogen Synthase Kinase 3 for the Treatment of Human African Trypanosomiasis” (Journal of Medicinal Chemistry, 2014).
# What was measured:
# Format in all cases: biochemical
# panel of 80 human PKs = test: Mammalian kinase profiling, whole panel (4f, 4m, 4y); conditions: 10 μM
# Procedure: To assess the selectivity of the aminopyrazole inhibitors, remaining activity at 10 μM concentration was measured for compounds 4f, 4m, and 4y against a panel of 80 human PKs and for compound 9g against 124 human PKs. […] Compound 4m inhibited only two PKs, namely GSK3β and CDK2, at more than 80%.
# Selected compounds were screened against a panel of mammalian kinases routinely run by the Division of Signal Transduction Therapy (DSTT) at the University of Dundee in duplicate at 10 μM.[32] Enzymes included in the panel and assay conditions are reported in the literature. All biochemical assays are run below the Km^app for the ATP for each enzyme, allowing comparison of inhibition across the panel.
# MARK3 = target: T1, MARK3 (Homo sapiens, UniProt P27448); test: Mammalian kinase profiling (DSTT panel); conditions: 10 μM; average percentage of remaining activity
# T1 construct: purchased Division of Signal Transduction Therapy (DSTT), University of Dundee
# CSK = target: T2, CSK (Homo sapiens, UniProt P41240); test: Mammalian kinase profiling (DSTT panel); conditions: 10 μM; average percentage of remaining activity
# T2 construct: purchased Division of Signal Transduction Therapy (DSTT), University of Dundee
# CHK1 = target: T3, CHK1 (Homo sapiens, UniProt O14757); test: Mammalian kinase profiling (DSTT panel); conditions: 10 μM; average percentage of remaining activity
# T3 construct: purchased Division of Signal Transduction Therapy (DSTT), University of Dundee
# PLK1 = target: T4, PLK1 (Homo sapiens, UniProt P53350); test: Mammalian kinase profiling (DSTT panel); conditions: 10 μM; average percentage of remaining activity
# T4 construct: purchased Division of Signal Transduction Therapy (DSTT), University of Dundee
# PKC zeta = target: T5, PKC zeta (Homo sapiens, UniProt Q05513); test: Mammalian kinase profiling (DSTT panel); conditions: 10 μM; average percentage of remaining activity
# T5 construct: purchased Division of Signal Transduction Therapy (DSTT), University of Dundee
# TBK1 = target: T6, TBK1 (Homo sapiens, UniProt Q9UHD2); test: Mammalian kinase profiling (DSTT panel); conditions: 10 μM; average percentage of remaining activity
# T6 construct: purchased Division of Signal Transduction Therapy (DSTT), University of Dundee
# IKKe = target: T7, IKKe (Homo sapiens, UniProt Q14164); test: Mammalian kinase profiling (DSTT panel); conditions: 10 μM; average percentage of remaining activity
# T7 construct: purchased Division of Signal Transduction Therapy (DSTT), University of Dundee
# FGF-R1 = target: T8, FGF-R1 (Homo sapiens, UniProt P11362); test: Mammalian kinase profiling (DSTT panel); conditions: 10 μM; average percentage of remaining activity
# T8 construct: purchased Division of Signal Transduction Therapy (DSTT), University of Dundee
# MNK2 = target: T9, MNK2 (Homo sapiens, UniProt Q9HBH9); test: Mammalian kinase profiling (DSTT panel); conditions: 10 μM; average percentage of remaining activity
# T9 construct: purchased Division of Signal Transduction Therapy (DSTT), University of Dundee
# NEK6 = target: T10, NEK6 (Homo sapiens, UniProt Q9HC98); test: Mammalian kinase profiling (DSTT panel); conditions: 10 μM; average percentage of remaining activity
# T10 construct: purchased Division of Signal Transduction Therapy (DSTT), University of Dundee
# EF2K = target: T11, EF2K (Homo sapiens, UniProt O00418); test: Mammalian kinase profiling (DSTT panel); conditions: 10 μM; average percentage of remaining activity
# T11 construct: purchased Division of Signal Transduction Therapy (DSTT), University of Dundee
# BRSK2 = target: T12, BRSK2 (Homo sapiens, UniProt Q8IWQ3); test: Mammalian kinase profiling (DSTT panel); conditions: 10 μM; average percentage of remaining activity
# T12 construct: purchased Division of Signal Transduction Therapy (DSTT), University of Dundee
# PHK = target: T13, PHK (Homo sapiens, UniProt Q16816); test: Mammalian kinase profiling (DSTT panel); conditions: 10 μM; average percentage of remaining activity
# T13 construct: purchased Division of Signal Transduction Therapy (DSTT), University of Dundee
# Src = target: T14, Src (Homo sapiens, UniProt P12931); test: Mammalian kinase profiling (DSTT panel); conditions: 10 μM; average percentage of remaining activity
# T14 construct: purchased Division of Signal Transduction Therapy (DSTT), University of Dundee
# P38s MAPK = target: T15, P38s MAPK (Homo sapiens, UniProt O15264); test: Mammalian kinase profiling (DSTT panel); conditions: 10 μM; average percentage of remaining activity
# T15 construct: purchased Division of Signal Transduction Therapy (DSTT), University of Dundee
# TbGSK3 short = target: T16, TbGSK3 short (Trypanosoma brucei brucei, UniProt Q388M1); test: Radiometric 96-well Flashplate potency assay, TbGSK3
# T16 sequence (Q388M1 1-352): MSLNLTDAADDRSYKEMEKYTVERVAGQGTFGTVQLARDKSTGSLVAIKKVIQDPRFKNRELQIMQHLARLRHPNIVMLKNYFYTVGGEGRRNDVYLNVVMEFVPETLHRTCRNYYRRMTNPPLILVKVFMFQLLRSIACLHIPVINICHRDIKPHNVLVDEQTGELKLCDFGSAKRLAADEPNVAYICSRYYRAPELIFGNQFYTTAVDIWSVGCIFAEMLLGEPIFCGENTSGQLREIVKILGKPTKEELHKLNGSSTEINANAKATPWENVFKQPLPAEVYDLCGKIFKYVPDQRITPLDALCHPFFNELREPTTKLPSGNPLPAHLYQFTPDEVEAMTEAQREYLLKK
# Procedure: For compound potency determinations, a radiometric 96-well Flashplate assay (PerkinElmer) was adopted. Compounds were solubilized in DMSO at a top concentration of 3 mM and serially diluted to achieve 10-point titration of final assay concentrations from 30 μM to 0.3 nM with a final DMSO concentration of 1% (v/v). The reaction mixtures contained 1 μM biotinylated GSP2 substrate, 1 μM ATP, 3.7 KBq/well [γ-33P]-ATP and 2.5 nM TbGSK3 in the TbGSK3 kinase assay buffer. GSK3 inhibitors were screened for selectivity assessment also against HsGSK3β. For HsGSK3 assay, the reaction mixes contained 1 μM biotinylated GSP2 substrate, 2 μM ATP, 7.4 KBq/well [γ-33P]-ATP and 15 nM HsGSK3β in the TbGSK3 kinase assay buffer (25 mM Tris-HCl, pH 7.5, 10 mM MgCl2, 5 mM DTT, 0.02% CHAPS, 2 U/mL heparin). For HsCDK2/cyclin A assay, the reaction mixtures contained 1 mM CDK5 biotinylated peptide substrate (Biotin-C6-PKTPKKAKKL), 1 μM ATP, 7.4 KBq/well [γ-^33P]-ATP and 2 nM HsCDK2/cyclin A in the kinase assay buffer (50 mM Tris-HCl, pH 7.5, 10 mM MgCl2, 2 mM DTT, 100 mM NaCl, 0.2 mM EGTA, 0.02% (v/v) Brij35).
# The statistical significance of the compound potency (IC50) was based on the performance of standard molecules which have been tested to a high replication. In the case of TbGSK3 short assay, the standard compound GW8510 was tested 93 times across 9 independent runs. […] The minimum significant ratio (MSR) of 0.4 was evaluated considering the following formula: [drawing 1] where SD is the standard deviation and N the number of replicate values routinely used for the assay (2 in our case).[31] This implies that a difference of >0.4 in pIC50 can be considered statistically significant for this assay.
# PKD1 = target: T17, PKD1 (Homo sapiens, UniProt Q15139); test: Mammalian kinase profiling (DSTT panel); conditions: 10 μM; average percentage of remaining activity
# T17 construct: purchased Division of Signal Transduction Therapy (DSTT), University of Dundee
# MST4 = target: T18, MST4 (Homo sapiens, UniProt Q9P289); test: Mammalian kinase profiling (DSTT panel); conditions: 10 μM; average percentage of remaining activity
# T18 construct: purchased Division of Signal Transduction Therapy (DSTT), University of Dundee
# IKKb = target: T19, IKKb (Homo sapiens, UniProt O14920); test: Mammalian kinase profiling (DSTT panel); conditions: 10 μM; average percentage of remaining activity
# T19 construct: purchased Division of Signal Transduction Therapy (DSTT), University of Dundee
# PAK6 = target: T20, PAK6 (Homo sapiens, UniProt Q9NQU5); test: Mammalian kinase profiling (DSTT panel); conditions: 10 μM; average percentage of remaining activity
# T20 construct: purchased Division of Signal Transduction Therapy (DSTT), University of Dundee
# Aurora B = target: T21, Aurora B (Homo sapiens, UniProt Q96GD4); test: Mammalian kinase profiling (DSTT panel); conditions: 10 μM; average percentage of remaining activity
# T21 construct: purchased Division of Signal Transduction Therapy (DSTT), University of Dundee
# T14 sequence (P12931 whole entry): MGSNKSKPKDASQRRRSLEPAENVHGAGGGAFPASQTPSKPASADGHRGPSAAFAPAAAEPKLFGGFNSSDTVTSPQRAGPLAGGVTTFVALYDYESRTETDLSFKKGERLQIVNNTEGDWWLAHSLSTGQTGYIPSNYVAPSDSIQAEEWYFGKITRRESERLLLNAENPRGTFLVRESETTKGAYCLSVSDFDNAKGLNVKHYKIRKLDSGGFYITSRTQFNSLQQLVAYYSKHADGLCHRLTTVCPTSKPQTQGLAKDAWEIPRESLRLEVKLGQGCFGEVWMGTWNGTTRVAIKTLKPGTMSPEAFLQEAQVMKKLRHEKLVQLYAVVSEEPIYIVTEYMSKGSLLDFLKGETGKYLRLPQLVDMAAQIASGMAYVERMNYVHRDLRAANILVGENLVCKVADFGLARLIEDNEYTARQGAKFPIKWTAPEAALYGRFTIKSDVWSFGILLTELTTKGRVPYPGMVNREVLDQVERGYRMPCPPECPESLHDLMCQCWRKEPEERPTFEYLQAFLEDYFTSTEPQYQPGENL
# T17 sequence (Q15139 whole entry): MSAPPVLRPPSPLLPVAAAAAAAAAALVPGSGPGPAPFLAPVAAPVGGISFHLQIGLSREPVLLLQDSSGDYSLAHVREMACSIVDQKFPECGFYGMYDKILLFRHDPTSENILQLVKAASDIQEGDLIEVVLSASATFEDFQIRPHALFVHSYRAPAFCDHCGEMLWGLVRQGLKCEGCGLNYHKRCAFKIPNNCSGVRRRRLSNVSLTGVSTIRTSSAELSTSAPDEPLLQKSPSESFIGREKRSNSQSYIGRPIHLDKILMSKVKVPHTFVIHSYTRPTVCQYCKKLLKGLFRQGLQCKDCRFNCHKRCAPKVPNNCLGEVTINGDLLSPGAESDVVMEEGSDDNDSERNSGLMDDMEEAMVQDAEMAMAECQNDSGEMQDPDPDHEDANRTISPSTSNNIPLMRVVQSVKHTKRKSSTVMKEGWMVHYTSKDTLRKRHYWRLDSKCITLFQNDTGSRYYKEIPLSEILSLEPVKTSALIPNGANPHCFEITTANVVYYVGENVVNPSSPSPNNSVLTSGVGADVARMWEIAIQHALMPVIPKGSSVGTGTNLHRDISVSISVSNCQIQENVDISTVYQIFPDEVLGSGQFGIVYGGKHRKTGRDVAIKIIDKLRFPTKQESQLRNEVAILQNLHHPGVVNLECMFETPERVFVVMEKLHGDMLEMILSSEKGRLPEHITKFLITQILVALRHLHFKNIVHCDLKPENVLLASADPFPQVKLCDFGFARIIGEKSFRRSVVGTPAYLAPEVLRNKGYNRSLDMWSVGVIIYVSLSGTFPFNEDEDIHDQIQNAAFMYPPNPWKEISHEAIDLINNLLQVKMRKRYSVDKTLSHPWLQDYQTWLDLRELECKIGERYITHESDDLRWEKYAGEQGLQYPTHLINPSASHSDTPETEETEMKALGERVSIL
# T4 sequence (P53350 whole entry): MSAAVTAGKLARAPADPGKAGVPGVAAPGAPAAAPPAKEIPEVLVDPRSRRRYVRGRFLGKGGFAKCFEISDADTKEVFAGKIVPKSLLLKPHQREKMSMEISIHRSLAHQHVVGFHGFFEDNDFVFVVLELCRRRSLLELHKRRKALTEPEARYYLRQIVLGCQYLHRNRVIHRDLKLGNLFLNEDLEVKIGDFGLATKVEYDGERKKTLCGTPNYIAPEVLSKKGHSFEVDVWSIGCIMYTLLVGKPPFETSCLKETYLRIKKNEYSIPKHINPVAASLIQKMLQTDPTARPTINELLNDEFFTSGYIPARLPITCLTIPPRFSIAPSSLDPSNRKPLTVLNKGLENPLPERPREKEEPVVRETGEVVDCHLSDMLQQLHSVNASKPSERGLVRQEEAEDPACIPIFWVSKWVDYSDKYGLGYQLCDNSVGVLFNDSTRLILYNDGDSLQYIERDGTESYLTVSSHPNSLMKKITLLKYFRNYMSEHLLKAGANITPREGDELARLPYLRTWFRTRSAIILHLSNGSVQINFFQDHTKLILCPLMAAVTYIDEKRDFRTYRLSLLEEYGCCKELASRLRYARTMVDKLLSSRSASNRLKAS
# T11 sequence (O00418 whole entry): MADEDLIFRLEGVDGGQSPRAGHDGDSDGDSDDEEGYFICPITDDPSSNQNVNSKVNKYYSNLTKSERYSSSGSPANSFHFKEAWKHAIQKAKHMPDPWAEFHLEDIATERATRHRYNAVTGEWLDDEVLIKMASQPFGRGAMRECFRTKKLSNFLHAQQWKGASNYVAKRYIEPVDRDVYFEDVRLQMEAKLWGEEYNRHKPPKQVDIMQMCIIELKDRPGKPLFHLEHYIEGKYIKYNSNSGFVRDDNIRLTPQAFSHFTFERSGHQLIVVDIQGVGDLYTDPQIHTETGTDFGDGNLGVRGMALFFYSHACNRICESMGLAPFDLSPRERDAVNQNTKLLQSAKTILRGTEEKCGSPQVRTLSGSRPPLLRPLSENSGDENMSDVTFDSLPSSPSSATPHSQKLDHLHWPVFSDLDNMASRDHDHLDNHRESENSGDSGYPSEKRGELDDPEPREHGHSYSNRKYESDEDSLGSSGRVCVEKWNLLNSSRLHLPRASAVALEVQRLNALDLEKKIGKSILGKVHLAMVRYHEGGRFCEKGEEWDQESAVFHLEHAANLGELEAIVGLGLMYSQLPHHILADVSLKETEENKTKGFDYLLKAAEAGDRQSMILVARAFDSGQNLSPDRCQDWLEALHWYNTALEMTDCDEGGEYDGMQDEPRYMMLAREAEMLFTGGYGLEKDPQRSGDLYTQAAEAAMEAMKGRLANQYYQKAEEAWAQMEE
# T5 sequence (Q05513 whole entry): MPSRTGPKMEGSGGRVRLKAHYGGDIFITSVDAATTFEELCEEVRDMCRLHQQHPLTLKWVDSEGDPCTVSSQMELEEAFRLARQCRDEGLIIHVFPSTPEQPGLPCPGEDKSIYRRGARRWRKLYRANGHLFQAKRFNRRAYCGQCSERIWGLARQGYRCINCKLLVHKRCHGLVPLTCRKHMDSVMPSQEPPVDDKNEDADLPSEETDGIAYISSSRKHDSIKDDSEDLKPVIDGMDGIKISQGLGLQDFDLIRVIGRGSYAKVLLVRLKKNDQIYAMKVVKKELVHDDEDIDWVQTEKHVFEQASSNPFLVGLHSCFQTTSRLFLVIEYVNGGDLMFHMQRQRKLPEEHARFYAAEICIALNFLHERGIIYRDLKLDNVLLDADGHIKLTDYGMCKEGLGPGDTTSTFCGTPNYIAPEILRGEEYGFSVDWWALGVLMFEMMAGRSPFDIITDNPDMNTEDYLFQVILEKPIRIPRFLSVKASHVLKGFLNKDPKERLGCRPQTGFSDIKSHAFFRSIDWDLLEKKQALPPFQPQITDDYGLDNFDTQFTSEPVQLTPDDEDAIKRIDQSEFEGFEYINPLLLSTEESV
# T20 sequence (Q9NQU5 whole entry): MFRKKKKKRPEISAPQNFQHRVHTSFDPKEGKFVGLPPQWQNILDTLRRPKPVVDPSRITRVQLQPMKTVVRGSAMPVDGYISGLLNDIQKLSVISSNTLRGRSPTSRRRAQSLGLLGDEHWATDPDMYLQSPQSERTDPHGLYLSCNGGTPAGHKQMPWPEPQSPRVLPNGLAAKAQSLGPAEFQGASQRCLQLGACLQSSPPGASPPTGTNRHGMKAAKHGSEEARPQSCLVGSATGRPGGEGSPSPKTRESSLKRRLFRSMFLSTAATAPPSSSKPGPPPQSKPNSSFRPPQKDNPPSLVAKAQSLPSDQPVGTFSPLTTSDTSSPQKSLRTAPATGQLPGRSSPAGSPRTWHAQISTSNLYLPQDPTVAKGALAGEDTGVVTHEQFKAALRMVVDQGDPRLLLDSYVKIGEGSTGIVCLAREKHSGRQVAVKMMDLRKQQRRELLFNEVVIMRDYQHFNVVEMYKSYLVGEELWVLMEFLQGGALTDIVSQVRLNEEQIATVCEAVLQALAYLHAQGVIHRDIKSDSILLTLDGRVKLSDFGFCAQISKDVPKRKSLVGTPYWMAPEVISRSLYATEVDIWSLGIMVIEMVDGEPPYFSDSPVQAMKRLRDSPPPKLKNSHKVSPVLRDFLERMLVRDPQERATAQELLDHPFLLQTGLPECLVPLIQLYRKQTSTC
# T2 sequence (P41240 whole entry): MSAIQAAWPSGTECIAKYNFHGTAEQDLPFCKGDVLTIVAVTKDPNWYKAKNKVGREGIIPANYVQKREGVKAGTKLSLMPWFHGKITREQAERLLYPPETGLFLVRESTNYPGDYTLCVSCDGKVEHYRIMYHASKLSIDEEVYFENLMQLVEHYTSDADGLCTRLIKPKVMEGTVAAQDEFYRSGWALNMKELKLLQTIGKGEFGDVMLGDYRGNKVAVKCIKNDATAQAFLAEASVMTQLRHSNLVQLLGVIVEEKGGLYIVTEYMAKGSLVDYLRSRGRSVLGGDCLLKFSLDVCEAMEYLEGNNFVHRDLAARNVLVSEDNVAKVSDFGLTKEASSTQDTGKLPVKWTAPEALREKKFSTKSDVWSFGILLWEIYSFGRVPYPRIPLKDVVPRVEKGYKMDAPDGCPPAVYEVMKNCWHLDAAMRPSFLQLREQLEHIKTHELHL
# T9 sequence (Q9HBH9 whole entry): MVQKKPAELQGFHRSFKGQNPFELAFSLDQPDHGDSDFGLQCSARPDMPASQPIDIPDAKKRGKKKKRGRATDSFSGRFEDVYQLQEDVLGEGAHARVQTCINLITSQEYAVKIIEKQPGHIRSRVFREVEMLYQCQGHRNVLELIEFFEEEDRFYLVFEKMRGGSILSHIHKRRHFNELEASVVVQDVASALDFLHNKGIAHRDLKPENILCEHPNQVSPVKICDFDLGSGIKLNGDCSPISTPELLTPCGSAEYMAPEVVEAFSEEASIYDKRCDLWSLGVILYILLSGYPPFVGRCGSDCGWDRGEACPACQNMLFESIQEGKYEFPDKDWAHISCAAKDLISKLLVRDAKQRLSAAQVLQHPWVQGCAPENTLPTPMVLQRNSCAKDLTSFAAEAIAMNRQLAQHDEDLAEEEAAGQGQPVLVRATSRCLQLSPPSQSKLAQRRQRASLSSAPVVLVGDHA
Compound,number of PKs inhibited by more than 80% (panel of 80 human PKs),MARK3 activity compared to the control (MARK3) [%],CSK activity compared to the control (CSK) [%],CHK1 activity compared to the control (CHK1) [%],PLK1 activity compared to the control (PLK1) [%],PKC zeta activity compared to the control (PKC zeta) [%],TBK1 activity compared to the control (TBK1) [%],IKKe activity compared to the control (IKKe) [%],FGF-R1 activity compared to the control (FGF-R1) [%],MNK2 activity compared to the control (MNK2) [%],NEK6 activity compared to the control (NEK6) [%],EF2K activity compared to the control (EF2K) [%],BRSK2 activity compared to the control (BRSK2) [%],PHK activity compared to the control (PHK) [%],Src activity compared to the control (Src) [%],P38s MAPK activity compared to the control (P38s MAPK) [%],PKD1 activity compared to the control (PKD1) [%],MST4 activity compared to the control (MST4) [%],IKKb activity compared to the control (IKKb) [%],PAK6 activity compared to the control (PAK6) [%],also measured
"CO[C@H]1CC[C@H](NC(=O)c2n[nH]cc2NC(=O)c2ccccc2)CC1 [Compound 4f, 4-Benzamido-N-(4-methoxycyclohexyl)-1H-pyrazole-3-carboxamide]",seven,84,85,100,100,57,63,62,99,100,100,99,55,89,98,57,,,,,"improvement of TbGSK3 inhibition potency (TbGSK3 short; relative to saturated six-membered rings (4a, 4b) and benzyl groups (4c, 4d, 4e), on average): ~20 fold"
"COc1cccc(OC)c1C(=O)Nc1c[nH]nc1C(=O)NC1CCC(OC)CC1 (centres unmarked) [Compound 4m, 4-(2,6-Dimethoxybenzamido)-N-(4-methoxycyclohexyl)-1H-pyrazole-3-carboxamide]",two,,,,,,,,,,,,,,,,59,49,100,90,Aurora B activity compared to the control (Aurora B): 87%; TbGSK3 potency relative to 4f (TbGSK3 short; more potent than the unsubstituted phenyl compound 4f): approximately 10 fold
"CO[C@H]1CC[C@H](NC(=O)c2n[nH]cc2NC(=O)c2ccc(-c3ccccc3)o2)CC1 [Compound 4y, N-(4-Methoxycyclohexyl)-4-(5-phenylfuran-2-carboxamido)-1H-pyrazole-3-carboxamide]",,83,73,94,99,60,73,46,72,77,70,92,60,45,85,38,59,30,36,71,Aurora B activity compared to the control (Aurora B): 47%
